Consider 30 compounds from US20240150356A1, “Pyrimidine amide compounds and use thereof” (ALPHALA CO., LTD., priority 2019, published 2024).

Molecules are shown by their SMILES.

The first experiment relates to Hep3B cells (hepatocellular carcinoma cell line). The experiment is described as follows: In vitro MTS cell viability assay (NCI-60 methodology), Hep3B. In kind it is cell-based. The conditions noted are these: Homo sapiens, 48 h, Table 1, MTS, 2 days drug incubation, 50% reduction vs time zero, read-out: Hep3B LC50. Put shortly:
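Hep3B cells given five 2-fold dilutions of compound for 2 days, with viability by MTS measured at time zero and at end. LC50 is the concentration giving a 50% fall in viable cells relative to the start of treatment, per NCI-60 formula.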
In general terms: Tetrazolium assays rely on reduction of a dye to a coloured formazan, in cell work by metabolically active cells.
One may read the LC50 as the concentration lethal to half of the exposed cells or organisms. Turning to `CC(C)(C)c1ccc(-c2nc(NC(=O)c3ccc([N+](=O)[O-])s3)c3cnn(C(C)(C)C)c3n2)cc1` [Compound 1-25, N-(1-(tert-butyl)-6-(4-(tert-butyl)phenyl)-1H-pyrazolo[3,4,d]pyrimidin-4-yl)-5-nitrothiophene-2-carboxamide], the LC50 amounted to 4110 nM. On the same count and under the same terms, then `O=C(Nc1nc(-c2ccc(OC(F)(F)F)cc2)nc2c1cnn2CCO)c1ccc([N+](=O)[O-])s1` [Compound 1-28, N-(1-(2-hydroxyethyl)-6-(4-(trifluoromethoxy)phenyl)-1H-pyrazolo[3,4-d]pyrimidin-4-yl)-5-nitrothiophene-2-carboxamide], with 4030 nM; and `CC(C)(C)n1ncc2c(NC(=O)c3ccc([N+](=O)[O-])s3)nc(-c3ccc(C(F)(F)F)cc3)nc21` [Compound 1-26, N-(1-(tert-butyl)-6-(4-(trifluoromethyl)phenyl)-1H-pyrazolo[3,4,d]pyrimidin-4-yl)-5-nitrothiophene-2-carboxamide], with 790 nM.

Still in this experiment, the particulars now being: Homo sapiens, 48 h, Table 4, MTS, 2 days drug incubation, 50% reduction vs time zero, read-out: Hep3B LC50.
As for `Cc1csc2c(NC(=O)c3ccc([N+](=O)[O-])s3)nc(Oc3ccc(C(C)(C)C)cc3)nc12` [Compound 4-12, N-(2-(4-(tert-butyl)phenoxy)-7-methylthieno[3,2-d]pyrimidin-4-yl)-5-nitrothiophene-2-carboxamide], the LC50 came to 1340 nM.

The experiment is the same for the next values; noted with them: Homo sapiens, 48 h, Table 5, MTS, 2 days drug incubation, 50% reduction vs time zero, read-out: Hep3B LC50.
Consider `O=C(Nc1nc(-c2ccccc2F)nc2c1cnn2-c1ccccc1)c1ccc([N+](=O)[O-])s1` [Compound 5-25, N-(6-(2-fluorophenyl)-1-phenyl-1H-pyrazolo[3,4-d]pyrimidin-4-yl)-5-nitrothiophene-2-carboxamide], for which the LC50 came to 460 nM. Still for that read-out and setting: then `O=C(Nc1nc(N2CCCC2)nc2c1cnn2-c1ccccc1)c1ccc([N+](=O)[O-])s1` [Compound 5-3, 5-nitro-N-(1-phenyl-6-(pyrrolidin-1-yl)-1H-pyrazolo[3,4-d]pyrimidin-4-yl)thiophene-2-carboxamide], with 4910 nM. Same read-out and setting: then `O=C(Nc1nc(-c2ccc(C(F)(F)F)c(F)c2)nc2c1cnn2-c1ccccc1)c1ccc([N+](=O)[O-])s1` [Compound 5-52, N-(6-(3-fluoro-4-(trifluoromethyl)phenyl)-1-phenyl-1H-pyrazolo[3,4-d]pyrimidin-4-yl)-5-nitrothiophene-2-carboxamide], with over 1250 nM; and `O=C(Nc1nc(-c2cncnc2)nc2c1cnn2-c1ccccc1)c1ccc([N+](=O)[O-])s1` [Compound 5-24, 5-nitro-N-(1-phenyl-6-(pyrimidin-5-yl)-1H-pyrazolo[3,4-d]pyrimidin-4-yl)thiophene-2-carboxamide], with 960 nM. On the same count and under the same terms, under `O=C(Nc1nc(-n2ccc(C(F)(F)F)n2)nc2c1cnn2-c1ccccc1)c1ccc([N+](=O)[O-])s1` [Compound 5-22, 5-nitro-N-(1-phenyl-6-(3-(trifluoromethyl)-1H-pyrazol-1-yl)-1H-pyrazolo[3,4-d]pyrimidin-4-yl)thiophene-2-carboxamide] stands 380 nM; under `O=C(Nc1nc(Oc2ccccc2)nc2c1cnn2-c1ccccc1)c1ccc([N+](=O)[O-])s1` [Compound 5-13, 5-nitro-N-(6-phenoxy-1-phenyl-1H-pyrazolo[3,4-d]pyrimidin-4-yl)thiophene-2-carboxamide], over 5000 nM.

The experiment is the same for the next values; noted with them: Homo sapiens, 48 h, Table 6, MTS, 2 days drug incubation, 50% reduction vs time zero, read-out: Hep3B LC50.
`O=C(Nc1nc(-n2ccc(C(F)(F)F)n2)nc2c1cnn2-c1ccc(F)cc1)c1ccc([N+](=O)[O-])s1` [Compound 6-109, N-(1-(4-fluorophenyl)-6-(3-(trifluoromethyl)-1H-pyrazol-1-yl)-1H-pyrazolo[3,4-d]pyrimidin-4-yl)-5-nitrothiophene-2-carboxamide]: the LC50 is 380 nM. Same read-out and setting: under `CC1CC=C(c2nc(NC(=O)c3ccc([N+](=O)[O-])s3)c3cnn(-c4ccc(F)cc4)c3n2)CC1` (stereo not drawn) [Compound 6-142] stands 740 nM. Same read-out and setting: under `COCCOc1ccc(-c2nc(NC(=O)c3ccc([N+](=O)[O-])s3)c3cnn(-c4ccc(OC)cc4)c3n2)cn1` [Compound 6-26, N-(6-(6-(2-methoxyethoxy)pyridin-3-yl)-1-(4-methoxyphenyl)-1H-pyrazolo[3,4,d]pyrimidin-4-yl)-5-nitrothiophene-2-carboxamide] stands 220 nM; under `Cc1ccc(-n2ncc3c(NC(=O)c4ccc([N+](=O)[O-])s4)nc(-c4ccc5c(c4)OCCO5)nc32)cc1` [Compound 6-10, N-(6-(2,3-dihydrobenzo[b][1,4]dioxin-6-yl)-1-(p-tolyl)-1H-pyrazolo[3,4-d]pyrimidin-4-yl)-5-nitrothiophene-2-carboxamide], 620 nM. Still for that read-out and setting: under `CC(C)(C)c1ccc(-n2ncc3c(NC(=O)c4ccc([N+](=O)[O-])s4)nc(-c4cccc(F)c4)nc32)cc1` [Compound 6-80, N-(1-(4-(tert-butyl)phenyl)-6-(3-fluorophenyl)-1H-pyrazolo[3,4-d]pyrimidin-4-yl)-5-nitrothiophene-2-carboxamide] stands 780 nM; under `Cc1ccn(-c2nc(NC(=O)c3ccc([N+](=O)[O-])s3)c3cnn(-c4ccc(F)cc4)c3n2)n1` [Compound 6-108], 90 nM. As for `CCOCCOCCOc1ccc(-c2nc(NC(=O)c3ccc([N+](=O)[O-])s3)c3cnn(-c4ccc(F)cc4)c3n2)cn1` [Compound 6-137, N-(6-(6-(2-(2-ethoxyethoxy)ethoxy)pyridin-3-yl)-1-(4-fluorophenyl)-1H-pyrazolo[3,4-d]pyrimidin-4-yl)-5-nitrothiophene-2-carboxamide], the LC50 worked out at 180 nM. Still for that read-out and setting: then `COC[C@@H]1CCCN1c1nc(NC(=O)c2ccc([N+](=O)[O-])s2)c2cnn(-c3ccc(F)cc3)c2n1` [Compound 6-103, (S)—N-(1-(4-fluorophenyl)-6-(2-(methoxymethyl)pyrrolidin-1-yl)-1H-pyrazolo[3,4-d]pyrimidin-4-yl)-5-nitrothiophene-2-carboxamide], with 780 nM; and `O=C(Nc1nc(-c2ccsc2)nc2c1cnn2-c1cccc(Cl)c1)c1ccc([N+](=O)[O-])s1` [Compound 6-33, N-(1-(3-chlorophenyl)-6-(thiophen-3-yl)-1H-pyrazolo[3,4-d]pyrimidin-4-yl)-5-nitrothiophene-2-carboxamide], with 290 nM; and `O=C(Nc1nc(-c2ccc(C(F)(F)F)cc2C(F)(F)F)nc2c1cnn2-c1cccc(Cl)c1)c1ccc([N+](=O)[O-])s1` [Compound 6-42], with 760 nM. On the same count and under the same terms, then `COc1ccc(-n2ncc3c(NC(=O)c4ccc([N+](=O)[O-])s4)nc(-c4ccc(Cl)cc4)nc32)cc1` [Compound 6-20, N-(6-(4-chlorophenyl)-1-(4-methoxyphenyl)-1H-pyrazolo[3,4-d]pyrimidin-4-yl)-5-nitrothiophene-2-carboxamide], with 320 nM; and `COc1ccc(-n2ncc3c(NC(=O)c4ccc([N+](=O)[O-])s4)nc(C4CCC(C)(C)CC4)nc32)cc1` [Compound 6-30, N-(6-(4,4-dimethylcyclohexyl)-1-(4-methoxyphenyl)-1H-pyrazolo[3,4-d]pyrimidin-4-yl)-5-nitrothiophene-2-carboxamide], with 1320 nM; and `COCCOc1ccc(-c2nc(NC(=O)c3ccc([N+](=O)[O-])s3)c3cnn(-c4cccc(F)c4)c3n2)cn1` [Compound 6-94, N-(1-(3-fluorophenyl)-6-(6-(2-methoxyethoxy)pyridin-3-yl)-1H-pyrazolo[3,4-d]pyrimidin-4-yl)-5-nitrothiophene-2-carboxamide], with 280 nM.

Still in this experiment, the particulars now being: Homo sapiens, 48 h, Table 8, MTS, 2 days drug incubation, 50% reduction vs time zero, read-out: Hep3B LC50.
`C=CC(=O)N1CC[C@H](n2ncc3c(NC(=O)c4ccc([N+](=O)[O-])s4)nc(-c4ccc(F)nc4)nc32)C1` [Compound 8-3, (S)—N-(1-(1-acryloylpyrrolidin-3-yl)-6-(6-fluoropyridin-3-yl)-1H-pyrazolo[3,4-d]pyrimidin-4-yl)-5-nitrothiophene-2-carboxamide]: the LC50 was over 3000 nM.

Still in this experiment, the particulars now being: Homo sapiens, 48 h, Table 10, MTS, 2 days drug incubation, 50% reduction vs time zero, read-out: Hep3B LC50.
As for `CC1CC(C)CC(n2ncc3c(NC(=O)c4ccc([N+](=O)[O-])s4)nc(-c4ccc(F)cc4)nc32)C1` (stereo not drawn) [Compound 10-67, N-(1-(3,5-dimethylcyclohexyl)-6-(4-fluorophenyl)-1H-pyrazolo[3,4-d]pyrimidin-4-yl)-5-nitrothiophene-2-carboxamide], the LC50 was found to be 650 nM.

For `O=C(Nc1nc(-c2ccc(OCC(F)(F)F)nc2)nc2c1cnn2C1CCCCC1)c1ccc([N+](=O)[O-])s1` [Compound 10-49, N-(1-cyclohexyl-6-(6-(2,2,2-trifluoroethoxy)pyridin-3-yl)-1H-pyrazolo[3,4-d]pyrimidin-4-yl)-5-nitrothiophene-2-carboxamide], the LC50 came out at 630 nM. Turning to `O=C(Nc1nc(-c2ccc(F)cc2)nc2c1cnn2C1CCC(F)(F)CC1)c1ccc([N+](=O)[O-])s1` [Compound 10-54, N-(1-(4,4-difluorocyclohexyl)-6-(4-fluorphenyl)-1H-pyrazolo[3,4-d]pyrimidin-4-yl)-5-nitrothiophene-2-carboxamide], the LC50 was 920 nM. On the same count and under the same terms, under `CCOC(=O)c1ccc(-c2nc(NC(=O)c3ccc([N+](=O)[O-])s3)c3cnn(C4CCCCC4)c3n2)cc1` [Compound 10-33, ethyl 4-(1-cyclohexyl-4-(5-nitrothiophene-2-carboxamido)-1H-pyrazolo[3,4-d]pyrimidin-6-yl)benzoate] stands 540 nM; under `COCCOc1ccc(-c2nc(NC(=O)c3ccc([N+](=O)[O-])s3)c3cnn(C4CCCCC4)c3n2)cn1` [Compound 10-51, N-(1-cyclohexyl-6-(6-(2-methoxyethoxy)pyridin-3-yl)-1H-pyrazolo[3,4-d]pyrimidin-4-yl)-5-nitrothiophene-2-carboxamide], 960 nM; under `CCOCCOCCOc1ccc(-c2nc(NC(=O)c3ccc([N+](=O)[O-])s3)c3cnn(C4CCCCC4)c3n2)cn1` [Compound 10-53, N-(1-cyclohexyl-6-(6-(2-(2-ethoxyethoxy)ethoxy)pyridin-3-yl)-1H-pyrazolo[3,4-d]pyrimidin-4-yl)-5-nitrothiophene-2-carboxamide], 1230 nM.
